What follows are substances tested on IgE antibody present in the serum of a shrimp-allergic patient (assay: Epitope mapping (1): array of overlapping 15-amino-acid peptides, chemiluminescence). Conditions: 15-amino-acid peptide array; serum of 37 patients; difference from N2nd value of 5 non-shrimp-allergic subjects at least 35,000.
Format: binding, human
Description: Epitope mapping was carried out using a library of overlapping peptides (length: 15 amino acids) corresponding to the amino acid sequences identified as allergy components of shrimp and the amino acid sequence of arginine kinase. Specifically, the library of overlapping peptides was prepared on the basis of the amino acid sequences of SEQ ID NOs: 117, 141, 146, 2, 45, 87, 276, 161, 230, 179, 362, 381, 399, 421, 455, 481, 486, 520, 541, 300 and 306, and arginine kinase.
The peptides to be synthesized were shifted by 10 amino acids.
For preparation of peptide arrays, the Intavis CelluSpots™ technique was used. Specifically, the peptide arrays were prepared by the following procedure: (1) synthesizing peptides of interest on amino-modified cellulose disks using an automated chemical synthesis apparatus (Intavis MultiPep RS), (2) dissolving the amino-modified cellulose disks to obtain a cellulose-bound peptide solution, and (3) spotting the cellulose-bound peptides onto coated glass slides. The details of each procedure are as described below.
Peptide synthesis was carried out in incremental steps through 9-fluorenylmethoxycarbonyl (Fmoc) chemical reaction on amino-modified cellulose disks in 384-well synthesis plates. Specifically, amino acids in which a Fmoc group is bonded to an amino group were activated in a solution of N,N′-diisopropylcarbodiimide (DIC) and 1-hydroxybenzotriazole (HOBt) in dimethylformamide (DMF) and added dropwise to the cellulose disks so that the Fmoc group-bound amino acids were bound to the amino groups on the cellulose disks (coupling). Unreacted amino groups were capped with acetic anhydride and washed with DMF. Furthermore, the Fmoc groups were eliminated from the amino groups of the amino acids bound to the amino groups on the cellulose disks by treatment with piperidine and washing with DMF. The amino acids bound to the amino groups on the cellulose disks were repetitively subjected to the coupling, the capping, and the Fmoc group elimination described above to elongate the amino terminus for peptide synthesis.
The peptides-bound cellulose disks of interest obtained above in the subsection titled “(1) Synthesis of peptide” were transferred to 96-well plates and treated with a side chain deprotection mixed solution of trifluoroacetic acid (TFA), dichloromethane, triisopropylsilane (TIPS), and water for deprotection of amino acid side chains. Then, the deprotected cellulose-bound peptides were dissolved in a mixed solution of TFA, trifluoromethanesulfonic acid (TFMSA), TIPS, and water and precipitated in tetrabutyl methyl ether (TBME), and the precipitate was resuspended in dimethyl sulfoxide (DMSO) and mixed with a mixed solution of NaCl, sodium citrate, and water to obtain a peptide solution for slide spotting.
The peptide solution for slide spotting obtained above in the subsection titled “(2) Dissolution of amino-modified cellulose disk” was spotted onto Intavis CelluSpots™ slides using Intavis Slide Spotting Robot, and the slides were dried to prepare peptide arrays.
The presence or absence of binding, to each peptide fragment, of an IgE antibody present in the serum of a shrimp-allergic patient was measured through antigen-antibody reaction using the peptide arrays. […]

Substance | Peptide bound to an IgE antibody in serum in a patient-specific manner
E25: common 15-residue IgE-binding epitope sequence of polypeptide (E25), arginine kinase-derived (VNVDPEGKFVISTRV; VAR_SEQ 1..15 epitope) [Epitope E25] | bound to an IgE antibody in serum in a patient-specific manner
E26: common 15-residue IgE-binding epitope sequence of polypeptide (E26), myosin heavy chain type 1-derived (PDPDPTEYLFISREQ; VAR_SEQ 1..15 epitope) [Epitope E26] | bound to an IgE antibody in serum in a patient-specific manner
E27: common 15-residue IgE-binding epitope sequence of polypeptide (E27), myosin heavy chain type 1-derived (KLVTVKLPSGETKDF; VAR_SEQ 1..15 epitope) [Epitope E27] | bound to an IgE antibody in serum in a patient-specific manner
E28: common 15-residue IgE-binding epitope sequence of polypeptide (E28), myosin heavy chain type 1-derived (RGYHIFYQLMCDQID; VAR_SEQ 1..15 epitope) [Epitope E28] | bound to an IgE antibody in serum in a patient-specific manner
E29: common 15-residue IgE-binding epitope sequence of polypeptide (E29), myosin heavy chain type 1-derived (QRYNILAAKEMLEAK; VAR_SEQ 1..15 epitope) [Epitope E29] | bound to an IgE antibody in serum in a patient-specific manner
E30: common 15-residue IgE-binding epitope sequence of polypeptide (E30), myosin heavy chain type 1-derived (MLEAKDDKKAATACF; VAR_SEQ 1..15 epitope) [Epitope E30] | bound to an IgE antibody in serum in a patient-specific manner
E31: common 15-residue IgE-binding epitope sequence of polypeptide (E31), myosin heavy chain type 1-derived (ESRGRATLLGKFRNL; VAR_SEQ 1..15 epitope) [Epitope E31] | bound to an IgE antibody in serum in a patient-specific manner
E32: common 15-residue IgE-binding epitope sequence of polypeptide (E32), myosin heavy chain type 1-derived (INELEIALDHANKAN; VAR_SEQ 1..15 epitope) [Epitope E32] | bound to an IgE antibody in serum in a patient-specific manner
E33: common 15-residue IgE-binding epitope sequence of polypeptide (E33), myosin heavy chain type 1-derived (TKPYDPKKSCWVPDD; VAR_SEQ 1..15 epitope) [Epitope E33] | bound to an IgE antibody in serum in a patient-specific manner
E34: common 15-residue IgE-binding epitope sequence of polypeptide (E34), myosin heavy chain type 1-derived (VQVNPPKYEKCEDVS; VAR_SEQ 1..15 epitope) [Epitope E34] | bound to an IgE antibody in serum in a patient-specific manner
E35: common 15-residue IgE-binding epitope sequence of polypeptide (E35), myosin heavy chain type 1-derived (ERGYHIFYQMMSDQV; VAR_SEQ 1..15 epitope) [Epitope E35] | bound to an IgE antibody in serum in a patient-specific manner
E36: common 15-residue IgE-binding epitope sequence of polypeptide (E36), myosin heavy chain type 1-derived (GNMKFKQRGREEQAE; VAR_SEQ 1..15 epitope) [Epitope E36] | bound to an IgE antibody in serum in a patient-specific manner
E37: common 15-residue IgE-binding epitope sequence of polypeptide (E37), myosin heavy chain type 1-derived (IMHQLTCNGVLEGIR; VAR_SEQ 1..15 epitope) [Epitope E37] | bound to an IgE antibody in serum in a patient-specific manner
E38: common 15-residue IgE-binding epitope sequence of polypeptide (E38), myosin heavy chain type 1-derived (LDKELYRCGKTKVFF; VAR_SEQ 1..15 epitope) [Epitope E38] | bound to an IgE antibody in serum in a patient-specific manner
E39: common 15-residue IgE-binding epitope sequence of polypeptide (E39), myosin heavy chain type 1-derived (VQKTNQDKATKDHQI; VAR_SEQ 1..15 epitope) [Epitope E39] | bound to an IgE antibody in serum in a patient-specific manner
E40: common 15-residue IgE-binding epitope sequence of polypeptide (E40), myosin heavy chain type 1-derived (EISHQDEIINKVNKE; VAR_SEQ 1..15 epitope) [Epitope E40] | bound to an IgE antibody in serum in a patient-specific manner
E41: common 15-residue IgE-binding epitope sequence of polypeptide (E41), myosin heavy chain type 1-derived (MTQETVADIERQHKD; VAR_SEQ 1..15 epitope) [Epitope E41] | bound to an IgE antibody in serum in a patient-specific manner
E42: common 15-residue IgE-binding epitope sequence of polypeptide (E42), myosin heavy chain type 1-derived (QLEDTKKMVDDESRE; VAR_SEQ 1..15 epitope) [Epitope E42] | bound to an IgE antibody in serum in a patient-specific manner
E43: common 15-residue IgE-binding epitope sequence of polypeptide (E43), myosin heavy chain type 1-derived (EIDKRIQEKEEEFDA; VAR_SEQ 1..15 epitope) [Epitope E43] | bound to an IgE antibody in serum in a patient-specific manner
E44: common 15-residue IgE-binding epitope sequence of polypeptide (E44), hemocyanin subunit L1-derived (VRIFAWPHLDNNGIK; VAR_SEQ 1..15 epitope) [Epitope E44] | bound to an IgE antibody in serum in a patient-specific manner
E45: common 15-residue IgE-binding epitope sequence of polypeptide (E45), pyruvate kinase 3-derived (WHKQLFTELSQQVHL; VAR_SEQ 1..15 epitope) [Epitope E45] | bound to an IgE antibody in serum in a patient-specific manner

From patent publication US20260263593A1, “ALLERGY ANTIGEN AND EPITOPE THEREOF” (HOYU CO., LTD., priority 2018, published 2026)
